According to patent publication US20260215428A1, “WEED CONTROL METHOD” (SYNGENTA CROP PROTECTION AG, priority 2023, published 2026):

Legend:
Format in all cases: in vivo
Sorghum halepense = test: Further glasshouse test versus other ACCase-inhibiting herbicides, Table B2-4; conditions: 21 days after application
Text: (§1) Further tests were employed to test the efficacy of a compound of Formula I versus other ACCase-inhibiting herbicides. The five main targets were Lolium multiflorum, Eleusine indica, Digitaria insularis, Sorghum halepense and Echinochloa crus-galli. Collectively, the populations contained all the major target-site resistance mutations affecting ACCase herbicides. Two L. multiflorum (LM-NTSR-1 and LM-NTSR-2) and one E. crus-galli (ECG-NTSR-1) populations were characterised exclusively by non-target-site resistance (“NTSR”). The target-site resistant L. multiflorum and E. indication populations were 100% homozygous for different ACCase mutations whilst the D. insularis, S. halepense and E. crus-galli samples contained a mixture of homozygous wild and mutant individuals at different genotypic frequencies. Additional underlying NTSR cannot be ruled out in the populations characterised by target-site resistance.
(§2) Around 50 seeds of each of the 24 weed populations were sown in 12-cm pots containing a mixture of peat and compost in a 1:1 ratio. The pots were watered, fertilised and kept in controlled glasshouse conditions set at 24° C./16 hr day, 18° C. night, 65% relative humidity, and a photon flux density of approximately 250 μmol quanta m^−2 s^−1 for Lolium multiflorum. The E. indica, D. insularis, S. halepense and E. crus-galli plants were kept in a separate glasshouse bay characterised by a 17 H photoperiod of 180 μmol m^−2 s^−1 with temperatures of 25° C. day and 19° C. night and 65% relative humidity. When the plants were at the two to four-leaf stage, they were treated with the various ACCase-inhibiting herbicides at 0, 15, 30, 60, 120 and 240 g ai ha^−1 in a spray cabinet mounted with a single mobile Teejet flat fan nozzle (11002VS) calibrated to deliver 200 L ha^−1 at 200 kPa. The L. multiflorum populations were treated by a compound of Formula Ic, clodinafop-propargyl, pinoxaden, cycloxydim and clethodim and the warm season grass weeds E. indica, D. insularis, S. halepense and E. crus-galli were sprayed with a Compound Ic and the commonly employed haloxyfop-methyl and clethodim. Three replicate pots were used per population. Plants were assessed for visual damage compared to the untreated control 21 days after application (0=0% damage; 100=100% damage).

Lolium multiflorum = test: Glasshouse post-emergence test, visual damage, Table B1-1
Protocol: Seeds of a variety of test species are sown in standard soil in pots. For each treatment, three replicate pots containing 10-15 plants per one-inch pot were sprayed at the 2-3 leaf stage. Clethodim and Compound (Ic) were each applied at 15, 30, 60 and 120 g ai/ha. The test plants are then grown in a glasshouse under controlled conditions in a glasshouse (at 24/16° C., day/night; 14 hours light; 65% humidity) and watered twice daily. […]

Echinochloa Crus-galli = test: Further glasshouse test versus other ACCase-inhibiting herbicides, Table B2-5; conditions: 21 days after application
Text: as §1, §2

Digitaria insularis = test: Further glasshouse test versus other ACCase-inhibiting herbicides, Table B2-3; conditions: 21 days after application
Text: as §1, §2

Setaria viridis = test: Glasshouse post-emergence test, visual damage, Table B1-5; conditions: 14 days after application
Protocol: Seeds of a variety of test species are sown in standard soil in pots. For each treatment, three replicate pots containing 10-15 plants per one-inch pot were sprayed at the 2-3 leaf stage. Clethodim and Compound (Ic) were each applied at 15, 30, 60 and 120 g ai/ha. The test plants are then grown in a glasshouse under controlled conditions in a glasshouse (at 24/16° C., day/night; 14 hours light; 65% humidity) and watered twice daily. Plants were assessed for visual damage compared to the untreated control 14 days after application (0=0% damage; 100=100% damage).

With `CCSC(C)CC1CC(=O)C(/C(CC)=N/OC/C=C/Cl)=C(O)C1` (stereo not shown) [Clethodim, clethodim] the visual damage (Sorghum halepense; biotype Sensitive, 15 g/ha) was 83%, the visual damage (Sorghum halepense; biotype Sensitive, 30 g/ha) was 98% and the visual damage (Sorghum halepense; biotype Sensitive, 60 g/ha) was 100%. It also gave a visual damage (Sorghum halepense; biotype Sensitive, 120 g/ha) of 93%, a visual damage (Sorghum halepense; biotype Sensitive, 240 g/ha) of 98% and a visual damage (Sorghum halepense; biotype W2027C, 15 g/ha) of 50%. For the same molecule, the visual damage (Sorghum halepense; biotype W2027C, 30 g/ha) was 92%, the visual damage (Sorghum halepense; biotype W2027C, 60 g/ha) was 100% and the visual damage (Sorghum halepense; biotype W2027C, 120 g/ha) was 100%. It also gave a visual damage (Sorghum halepense; biotype W2027C, 240 g/ha) of 100%, a visual damage (Lolium multiflorum; biotype CC2027 (homozygous), 15 g/ha, 14 days after application) of 53% and a visual damage (Lolium multiflorum; biotype CC2027 (homozygous), 30 g/ha, 14 days after application) of 77%. For the same molecule, the visual damage (Lolium multiflorum; biotype CC2027 (homozygous), 60 g/ha, 14 days after application) was 100%, the visual damage (Lolium multiflorum; biotype CC2027 (homozygous), 120 g/ha, 14 days after application) was 100% and the visual damage (Lolium multiflorum; biotype GG2078 (homozygous), 15 g/ha, 14 days after application) was 0%. For the same molecule, the visual damage (Lolium multiflorum; biotype GG2078 (homozygous), 30 g/ha, 14 days after application) was 20%, the visual damage (Lolium multiflorum; biotype GG2078 (homozygous), 60 g/ha, 14 days after application) was 20% and the visual damage (Lolium multiflorum; biotype GG2078 (homozygous), 120 g/ha, 14 days after application) was 50%. For the same molecule, the visual damage (Lolium multiflorum; biotype LL1781 (homozygous), 15 g/ha, 14 days after application) was 23%, the visual damage (Lolium multiflorum; biotype LL1781 (homozygous), 30 g/ha, 14 days after application) was 37% and the visual damage (Lolium multiflorum; biotype LL1781 (homozygous), 60 g/ha, 14 days after application) was 60%. The visual damage (Lolium multiflorum; biotype LL1781 (homozygous), 120 g/ha, 14 days after application) was 70%, the visual damage (Lolium multiflorum; biotype NN2041 (homozygous), 15 g/ha, 14 days after application) was 70% and the visual damage (Lolium multiflorum; biotype NN2041 (homozygous), 30 g/ha, 14 days after application) was 100%. It also gave a visual damage (Lolium multiflorum; biotype NN2041 (homozygous), 60 g/ha, 14 days after application) of 100%, a visual damage (Lolium multiflorum; biotype NN2041 (homozygous), 120 g/ha, 14 days after application) of 100% and a visual damage (Lolium multiflorum; biotype RR2088 (homozygous), 15 g/ha, 14 days after application) of 0%. The visual damage (Lolium multiflorum; biotype RR2088 (homozygous), 30 g/ha, 14 days after application) was 20%, the visual damage (Lolium multiflorum; biotype RR2088 (homozygous), 60 g/ha, 14 days after application) was 60% and the visual damage (Lolium multiflorum; biotype RR2088 (homozygous), 120 g/ha, 14 days after application) was 60%. It also gave a visual damage (Lolium multiflorum; biotype SS1999 (homozygous), 15 g/ha, 21 DAA) of 27%, a visual damage (Lolium multiflorum; biotype SS1999 (homozygous), 30 g/ha, 21 DAA) of 98% and a visual damage (Lolium multiflorum; biotype SS1999 (homozygous), 60 g/ha, 21 DAA) of 100%. It also gave a visual damage (Lolium multiflorum; biotype SS1999 (homozygous), 120 g/ha, 21 DAA) of 100%, a visual damage (Lolium multiflorum; biotype Sensitive, 15 g/ha, 14 days after application) of 53% and a visual damage (Lolium multiflorum; biotype Sensitive, 30 g/ha, 14 days after application) of 73%. It also gave a visual damage (Lolium multiflorum; biotype Sensitive, 60 g/ha, 14 days after application) of 99%, a visual damage (Lolium multiflorum; biotype Sensitive, 120 g/ha, 14 days after application) of 100% and a visual damage (Echinochloa Crus-galli; biotype Sensitive, 15 g/ha) of 100%. It also gave a visual damage (Echinochloa Crus-galli; biotype Sensitive, 30 g/ha) of 100%, a visual damage (Echinochloa Crus-galli; biotype Sensitive, 60 g/ha) of 100% and a visual damage (Echinochloa Crus-galli; biotype Sensitive, 120 g/ha) of 100%. The visual damage (Echinochloa Crus-galli; biotype Sensitive, 240 g/ha) was 100%, the visual damage (Echinochloa Crus-galli; biotype W2027C, 15 g/ha) was 83% and the visual damage (Echinochloa Crus-galli; biotype W2027C, 30 g/ha) was 100%. For the same molecule, the visual damage (Echinochloa Crus-galli; biotype W2027C, 60 g/ha) was 100%, the visual damage (Echinochloa Crus-galli; biotype W2027C, 120 g/ha) was 100% and the visual damage (Echinochloa Crus-galli; biotype W2027C, 240 g/ha) was 100%. For the same molecule, the visual damage (Echinochloa Crus-galli; population ECG-NTSR-1 (non-target-site resistance), 15 g/ha) was 95%, the visual damage (Echinochloa Crus-galli; population ECG-NTSR-1 (non-target-site resistance), 30 g/ha) was 98% and the visual damage (Echinochloa Crus-galli; population ECG-NTSR-1 (non-target-site resistance), 60 g/ha) was 100%. For the same molecule, the visual damage (Echinochloa Crus-galli; population ECG-NTSR-1 (non-target-site resistance), 120 g/ha) was 100%, the visual damage (Echinochloa Crus-galli; population ECG-NTSR-1 (non-target-site resistance), 240 g/ha) was 100% and the visual damage (Digitaria insularis; biotype Sensitive, 15 g/ha) was 100%. The visual damage (Digitaria insularis; biotype Sensitive, 30 g/ha) was 100%, the visual damage (Digitaria insularis; biotype Sensitive, 60 g/ha) was 100% and the visual damage (Digitaria insularis; biotype Sensitive, 120 g/ha) was 100%. The visual damage (Digitaria insularis; biotype Sensitive, 240 g/ha) was 100%, the visual damage (Digitaria insularis; biotype W2027C, 15 g/ha) was 78% and the visual damage (Digitaria insularis; biotype W2027C, 30 g/ha) was 100%. It also gave a visual damage (Digitaria insularis; biotype W2027C, 60 g/ha) of 100%, a visual damage (Digitaria insularis; biotype W2027C, 120 g/ha) of 100% and a visual damage (Digitaria insularis; biotype W2027C, 240 g/ha) of 100%. The visual damage (Setaria viridis; biotype GG2078 (homozygous), 15 g/ha) was 30%, the visual damage (Setaria viridis; biotype GG2078 (homozygous), 30 g/ha) was 60% and the visual damage (Setaria viridis; biotype GG2078 (homozygous), 60 g/ha) was 63%. It also gave a visual damage (Setaria viridis; biotype GG2078 (homozygous), 120 g/ha) of 67%, a visual damage (Setaria viridis; biotype II1781 (homozygous), 15 g/ha) of 80% and a visual damage (Setaria viridis; biotype II1781 (homozygous), 30 g/ha) of 100%. It also gave a visual damage (Setaria viridis; biotype II1781 (homozygous), 60 g/ha) of 100%, a visual damage (Setaria viridis; biotype II1781 (homozygous), 120 g/ha) of 100% and a visual damage (Setaria viridis; biotype LL1781 (homozygous), 15 g/ha) of 50%. The visual damage (Setaria viridis; biotype LL1781 (homozygous), 30 g/ha) was 60%, the visual damage (Setaria viridis; biotype LL1781 (homozygous), 60 g/ha) was 60% and the visual damage (Setaria viridis; biotype LL1781 (homozygous), 120 g/ha) was 53%. For the same molecule, the visual damage (Setaria viridis; biotype Sensitive, 15 g/ha) was 90%, the visual damage (Setaria viridis; biotype Sensitive, 30 g/ha) was 98% and the visual damage (Setaria viridis; biotype Sensitive, 60 g/ha) was 100%. It also gave a visual damage (Setaria viridis; biotype Sensitive, 120 g/ha) of 100%.
